Source: patent US20020054941A1, “Methods and compositions to enhance tenderness and value of meat” (The Board of Regents of the University of Nebraska, priority 2000, published 2002)
“Also recorded” adds a separate entry of the source. Marks after values point to notes of the source that are not given here.

What was measured:
[1] = system: Triceps brachii (TBR); assay: Warner-Bratzler shear force of muscle pumped pre-rigor with sodium citrate; design: species or system steers; unit not given here
Protocol: (§1) Thoracic limbs from 14 steers were chilled on the carcass (controls) or removed within 2 hours post-mortem and pumped to 10% of muscle weight with water, 200 mM or 400 mM sodium citrate solutions. The injections were performed at various sites along the muscle. The control remained on the carcass. Muscle pH and temperature were measured immediately prior to pumping. Experimental and control muscles were chilled at 2° C. for 24 hours. Steaks (2.54 cm thick) were removed after 24 hours from the Infraspinatus, Supraspinatus and Triceps brachii muscles and were either frozen immediately or aged for another 6 days and then evaluated. A consumer panel evaluated palatability juiciness, tenderness, connective tissue amount, and flavor desirability) on Infraspinatus and Triceps brachii steaks using 9-point hedonic scales (1 being very undesirable and 9 being very desirable) for each trait. Warner-Bratzler shear force values were determined on 1.27 cm-diameter cores from steaks that were broiled to an internal temperature of 70° C.

[2] = system: Infraspinatus (ISP); assay: as above; design: species or system steers; unit not given here
Protocol: as §1

[3] = system: Supraspinatus (SSP); assay: as above; design: species or system steers; unit not given here
Protocol: as §1

[4] = system: triceps brachii beef muscles; assay: Glycogen content, pre-rigor injection of whole muscle; conditions: 200 mM, calcium chloride 300 mM
Protocol: (§2) Experiment were conducted to test the effects of pre-rigor injection of several compounds. Effects of these compounds on pH, color, tenderness and other related traits of low-value beef cuts were investigated. Ten steers (22 to 24 mo of age, 515 to 676 kg live weight) were slaughtered according to current industry procedures. Pre-rigor semimembranosus (from the round), triceps brachii and supraspinatus muscles (from the chuck) were excised, after evisceration (approximately 1 hour post-mortem), from both sides of the carcass. Muscle sections were randomly assigned to the treatments: sodium citrate (NaC; 200 mM), sodium fluoride (NaF; 200 mM), sodium acetate (NaA; 200 mM), and calcium chloride (CaCl2; 300 mM). The control samples remained on the carcass at 2° C. for 24 hours to simulate commercial conditions. Following a cooling, control muscles were removed from each carcass (4 replicates), vacuum packaged and transferred to the holding cooler with the other cuts at 2° C. Calcium chloride treatment was included to be compared with the other treatments.
(§3) At 2 hours post-mortem, each muscle was injected with a volume equal to 8% of the muscle weight using a four-needle hand injector. The temperature of solutions were 4° C. Each muscle was individually treated (2% of solution was added to give a total of 10% of muscle weight) and tumbled in a 75-pound capacity tumbler (Röschermatic, Oshabrück, Germany) for 30 min to insure uniform distribution of the solution.
Samples of each muscle (approximately 100 g) were taken at 0 hour (before injection), 24, and 72 hours after injection for determination of pH, oxidation-reduction potential, glycogen content, R-values, NAD, and NADH. The samples were then immediately frozen in liquid nitrogen and stored at −80° C. until they were powdered and analyzed. Fresh muscle samples (approximately 20 g) were taken at 72 hours after injection and assayed immediately for water holding capacity and sarcomere length.
Glycogen extraction was performed in duplicate with 3 g of frozen-powdered muscle sample, which was homogenized with 0.6 N perchloric acid. Amylo-α-1,4-α-1,6- glucosidase from Aspergillus niger (No. A3514. Sigma Chemical, St. Louis, Mo.) was used for the breakdown of the glycogen molecules to free glucose following the method described by Roehrig and Allred (1974). Homogenate was incubated for 2 hours at 37° C., then 100 μL of 3 N perchloric acid was added to precipitate the proteins. After centrifugation, the supernatant was stored at 0-4° C., until analyzed, which was within 2 weeks.
The assay for glucose was run as described by Dalrymple and Hamm (1973) and Roehrig and Allred (1974), using glucose-6-phosphate dehydrogenase (No. G8878. Sigma Chemical, St. Louis, Mo.) and hexokinase (No. H5500. Sigma Chemical, St. Louis, Mo.). Briefly, the method involves an exoglucosidase, Amylogucosidase, from Aspergillus niger which hydrolyses the -α-D-(1-4) and -α-D-(1-6)-linkages of glycogen. The glucose formed is specifically determined with hexokinase and glucose-6-phosphate dehydrogenase. The glucose liberated after hydrolysis of glycogen is proportional to the increase of absorbance measured at 340 nm. Fifty μL of sample was incubated with 1 mL ATP, NADP, Glucose-6-phosphate dehydrogenase buffer and 5 μL hexokinase at 37° C. for 15 min. Absorbance was measured at 340 nm wavelength, light path=1 cm. The muscle glycogen content was calculated with the following formula: Glycogen (μmol glucose/g wet muscle weight)=111.882×absorbance. 111.882 is the dilution factor.

[5] = system: spoilage micro-organisms; assay: Microbial stability (logarithmic microbiological growth); conditions: for Logarithmic Microbiological Growth Values, difference: difference day 5 - day 0
Protocol: as §1
There were no differences in initial microbial load among the treatments.

[6] = system: supraspinatus beef muscles; assay: Warner-Bratzler shear force, pre-rigor injection of whole muscle; conditions: 200 mM
Protocol: as §2, §3
(§4) Tenderness of samples was evaluated by measuring Warner-Bratzler shear force. Steaks (2.54-cm thick) from the middle of each muscle were cut and frozen at 3, 7 and 14 days postmortem. Frozen steaks (2.54 cm thick) were thawed at 4° C. for 24 hours and cooked on Farberware Open Hearth Broilers (Model 350A Walter Kidde, Bronx, N.Y.) to an internal temperature of 40° C., turned, and cooked to a final internal temperature of 70° C. (AMSA, 1995). Temperature was monitored using an OMEGA thermocouple thermometer type T (Omega Engineering, Inc., Stamford, Conn.) inserted into the geometric center of a steak. The cooked steaks were chilled 2 hours at 2° C., and then 8 cores (1.27-cm diameter) were removed parallel to the muscle fiber orientation. Cores were sheared once each on an Instron Universal Testing Machine model 55R1123 (Instron, Canton, Mass.) with a Warner-Braztler attachment. The Instron was set up with a 500 kg load cell, full scale load=1 (0-10 kg), and crosshead speed=250 mm/mim.

[7] = system: semimembranosus beef muscles; assay: as above; conditions: 200 mM, calcium chloride 300 mM
Protocol: as §2, §3, §4

[8] = system: triceps brachii beef muscles; assay: as above; conditions: 200 mM, calcium chloride 300 mM; for Shear force, 3 d: 3 d postmortem; for Shear force, 7 d: 7 d postmortem
Protocol: as §2, §3, §4

SMILES: O=C([O-])CC(O)(CC(=O)[O-])C(=O)[O-].[Na+].[Na+].[Na+] [Sodium citrate, sodium citrate]
- WBSF ([1]; 200 mM, d1): 3.85^a
- WBSF ([1]; 200 mM, d7): 3.57^b
- WBSF ([1]; 400 mM, d1): 3.55^a
- WBSF ([1]; 400 mM, d7): 3.09^a
- WBSF ([2]; 200 mM, d1): 3.57^b
- WBSF ([2]; 200 mM, d7): 3.12^b
- WBSF ([2]; 400 mM, d1): 3.32^a
- WBSF ([2]; 400 mM, d7): 2.79^a
- WBSF ([3]; 200 mM, d1): 4.09^a
- WBSF ([3]; 200 mM, d7): 3.83^a
- WBSF ([3]; 400 mM, d1): 3.91^a
- WBSF ([3]; 400 mM, d7): 4.03^a
- Glycogen, 0 h ([4]; 0 h (before injection)): 38.74 μmol/g muscle
- Glycogen, 24 h ([4]; 24 h): 32.93^b μmol/g muscle
- Glycogen, 72 h ([4]; 72 h): 27.58^b μmol/g muscle
- Logarithmic Microbiological Growth Values ([5]; 200 mM, day 0): 2.58
- Logarithmic Microbiological Growth Values ([5]; 200 mM, day 5): 5.45^b
- Logarithmic Microbiological Growth Values, difference ([5]; 200 mM): 2.88^b
- Logarithmic Microbiological Growth Values ([5]; 400 mM, day 0): 2.72
- Logarithmic Microbiological Growth Values ([5]; 400 mM, day 5): 5.11^b
- Logarithmic Microbiological Growth Values, difference ([5]; 400 mM): no greater microbial growth than the control
- Logarithmic Microbiological Growth Values, difference ([5]; 400 mM, listed as NaCit): 2.40^a,b
- Shear force, 3 d ([6]; 3 d postmortem, calcium chloride 300 mM): 5.06^c kg
- Shear force, 7 d ([6]; 7 d postmortem, calcium chloride 300 mM): 4.89^b kg
- reduced shear force compared with controls ([6]; supraspinatus, 3 days post-mortem, CaCl2 300 mM): 2.22 kg
- Shear force, 3 d ([7]; 3 d postmortem): 5.14 kg
- Shear force, 7 d ([7]; 7 d postmortem): 4.41 kg
- Shear force, 14 d ([7]; 14 d postmortem): 3.96 kg
- Shear force, 3 d [8]: 4.54^c kg
- Shear force, 3 d ([8]; listed as NaC): most tender meat; also recorded: more tender
- Shear force, 7 d [8]: 4.20^c kg
- Shear force, 7 d ([8]; listed as NaC): lower shear force values than CaCl2
- Shear force, 14 d ([8]; 14 d postmortem): 3.69 kg
